Laboratory results published in patent US9212168B2 (priority 2011, dated 2015).

system: HCV genotype 1a replicon; assay: HCV genotype 1a replicon assay (NS3 protease activity readout); type: cell-based, hepatitis C virus; settings: HCV genotype 1a replicon
Protocol: Assay 2: HCV Genotype 1a Replicon Assay
The HCV genotype 1a replicon cell line was obtained from Apath LLC (APC89; Huh7.5 cell background). This subgenomic replicon contains the N-terminus of the HCV core protein fused to the neomycin-resistance selectable marker. The EMCV IRES lies downstream and drives expression of the non-structural proteins NS3-NS5B. Compound potencies were determined using the NS3-specific protease activity in lysates as a measurement of compound inhibition of replicon levels.
Cells were grown at 37° C. in a 5% CO2 humidified incubator in DMEM (Invitrogen) with 10% FBS (HyClone), 1×NEAA (Invitrogen), 1× Pen-Strep (Invitrogen), and 850 μg/mL G418 (Invitrogen). On day 1 of the assay, cells were plated at 15,000 cells/well in black 96-well tissue culture plates (Costar) in 200 μL media lacking G418. Four hours later, once the cells had adhered, the media was removed and replaced with media (no G418) containing dose-responses of test compounds. Compounds were initially diluted in DMSO and then diluted another 200× in media to bring the final DMSO concentration down to 0.5%. The cells were incubated with test compounds for 48 or 72 hours. At the end of the incubation period, media and compound were removed from the plates.
To determine the NS3-specific protease activity in lysates, the cells were lysed at room temperature in 50 μL/well of 50 mM Hepes pH 7.5, 150 mM NaCl, 15% Glycerol, 0.15% Triton X-100, 10 mM DTT for 20 minutes with shaking. 50 μL of an NS3/4a protease-specific FRET substrate (Anaspec RET S1 Cat#22991) was then added to the wells at a final concentration of 15 μM. The plates were incubated at 37° C. for 20 minutes, which corresponds to a timepoint at which the protease activity is still in the linear phase. Protease activity was determined by measuring fluorescence (Excitation: 340 nm; Emission: 509 nm).
To analyze the data, the fluorescence was plotted vs. the compound concentration, and EC50 values were determined from a 4-parameter robust fit model using GraphPad Prism software.

Compound	Genotype 1a
COC(=O)N[C@H](C(=O)N1C[C@@H](O)C[C@H]1c1nc(-c2ccc(-c3ccc(NC(=O)c4ccc(N5CCN(C(=O)c6c[nH]cn6)C[C@H]5C)nc4)cc3)cc2)c[nH]1)C(C)C [Example 26-2]	B (B represents pEC50 between 8 and 9 (EC50 between 1 and 10 nM))
COC(=O)N[C@H](C(=O)N1[C@@H](C)CC[C@H]1c1nc(-c2ccc(-c3ccc(C(=O)Nc4ccc(N5CCN(C(=O)C(C)(C)C)C[C@H]5C)nc4)cc3OC(F)(F)F)cc2)c(Cl)[nH]1)C(C)C [Example 18-2]	C (C represents pEC50 between and 9 and about 10, (EC50 between 1 nM and 0.1 nM))
COC(=O)NC(C(=O)N1C(C)CCC1c1nc(-c2ccc(-c3ccc(C(=O)Nc4ccc(N5CCN(C(=O)C6CC6(C)C)CC5C)nc4)cc3OC(F)(F)F)cc2)c(Cl)[nH]1)C(C)C (stereo not shown) [Example 18-1]	C (C represents pEC50 between and 9 and about 10, (EC50 between 1 nM and 0.1 nM))
CNC(=O)N1CCC[C@@H]1C(=O)N1C[C@@H](C)N(c2ccc(C(=O)Nc3cc(OC(F)(F)F)c(-c4ccc(-c5c[nH]c([C@@H]6C[C@H](C)CN6C(=O)[C@@H](NC(=O)OC)C(C)C)n5)cc4)cc3Cl)cn2)C[C@@H]1C [Example 1-44]	D (D represents pEC50>10 (EC50<0.1 nM))
CNC(=O)N1C[C@@H](C)N(c2ccc(C(=O)Nc3cc(OC(F)(F)F)c(-c4ccc(-c5c[nH]c([C@@H]6C[C@H](C)CN6C(=O)[C@H](NC(=O)OC)C(C)(C)C)n5)cc4)cc3Cl)cn2)C[C@@H]1C [Example 7-2]	A (A represents a pEC50 value between 6 and 8 (EC50 between 1 μM and 10 nM))
COC(=O)N[C@H](C(=O)N1C[C@@H](C)C[C@H]1c1nc(-c2ccc(-c3cc(Cl)c(NC(=O)c4ccc(N5CCN(C(=O)C6CC6(Cl)Cl)C[C@H]5C)nc4)cc3OC(F)(F)F)cc2)c[nH]1)C(C)C (single isomer, unassigned) [Example 1-56]	D (D represents pEC50>10 (EC50<0.1 nM))
COC(=O)NC(C(=O)N1CC(F)CC1c1nc(-c2ccc(-c3cc(Cl)c(NC(=O)c4ccc(N5CCN(C(=O)C(C)(C)C)CC5C)nc4)cc3OC(F)(F)F)cc2)c[nH]1)C(C)C (stereo not shown) [Example 29-2]	C (C represents pEC50 between and 9 and about 10, (EC50 between 1 nM and 0.1 nM))
COC(=O)NC(C(=O)N1CC(OC)CC1c1nc(-c2ccc(-c3cc(F)c(NC(=O)c4ccc(N5CCN(C(=O)C(C)(C)CO)CC5C)nc4)cc3OC(F)(F)F)cc2)c[nH]1)C(C)O (stereo not shown) [Example 16-12]	C (C represents pEC50 between and 9 and about 10, (EC50 between 1 nM and 0.1 nM))
COC(=O)N[C@H](C(=O)N1C[C@@H](C)C[C@H]1c1nc(-c2ccc(-c3cc(Cl)c(NC(=O)c4ccc(N5CCN(C(=O)C(C)(C)C)C[C@H]5C)nc4)cc3C(F)(F)F)cc2)c[nH]1)C1CCCCC1 [Example 19-8]	B (B represents pEC50 between 8 and 9 (EC50 between 1 and 10 nM))
COC(=O)N[C@H](C(=O)N1C[C@@H](C)C[C@H]1c1nc(-c2ccc(-c3cc(F)c(NC(=O)c4ccc(N5CCN(C(=O)C6(C)CC6)C[C@H]5C)nc4)cc3OC(F)(F)F)cc2)c[nH]1)C(C)C [Example 1-79]	C (C represents pEC50 between and 9 and about 10, (EC50 between 1 nM and 0.1 nM))
CNC(=O)N1CCC[C@@]1(C)C(=O)N1C[C@@H](C)N(c2ccc(C(=O)Nc3cc(OC(F)(F)F)c(-c4ccc(-c5c[nH]c([C@@H]6C[C@H](C)CN6C(=O)[C@@H](NC(=O)OC)C(C)C)n5)cc4)cc3F)cn2)C[C@@H]1C [Example 1-24]	D (D represents pEC50>10 (EC50<0.1 nM))
CNC(=O)N1CCN(c2ccc(C(=O)Nc3cc(OC(F)(F)F)c(-c4ccc(-c5c[nH]c([C@@H]6C[C@H](OC)CN6C(=O)[C@@H](NC(=O)OC)C6CCOCC6)n5)cc4)cc3Cl)cn2)[C@H](C)C1 [Example 28-13]	D (D represents pEC50>10 (EC50<0.1 nM))
COC(=O)N[C@H](C(=O)N1C[C@@H](C)C[C@H]1c1nc(-c2ccc(-c3cc(F)c(C(=O)Nc4ccc(N5CCN(C(=O)C(C)(C)C)C[C@H]5C)nc4)cc3OC(F)(F)F)cc2)c(Cl)[nH]1)C(C)C [Example 4-45]	C (C represents pEC50 between and 9 and about 10, (EC50 between 1 nM and 0.1 nM))
COC[C@H]1C[C@@H](c2nc(-c3ccc(-c4ccc(C(=O)Nc5ccc(N6CCN(C(=O)C(C)(C)C)C[C@H]6C)nc5)c(Cl)c4OC(F)(F)F)cc3)c[nH]2)N(C(=O)[C@@H](NC(=O)OC)C2CCOCC2)C1 [Example 25-6]	C (C represents pEC50 between and 9 and about 10, (EC50 between 1 nM and 0.1 nM))
COC(=O)NC(C(=O)N1CC(OC)CC1c1nc(-c2ccc(-c3ccc(NC(=O)c4ccc(N5CCN(C(=O)C(C)(C)CO)CC5C)nc4)cc3OC(F)(F)F)cc2)c[nH]1)C(C)(C)O (stereo not shown) [Example 16-17]	D (D represents pEC50>10 (EC50<0.1 nM))

same assay, conditions: Hepatitis C virus, read-out: Genotype 1a, HCV genotype 1a replicon

Compound	EC50
COC(=O)N[C@H](C(=O)N1C[C@@H](C)C[C@H]1c1nc(-c2ccc(-c3cc(Cl)c(NC(=O)c4ccc(N5CCN(C(=O)C(C)(C)CNC(C)=O)C[C@H]5C)nc4)cc3OC(F)(F)F)cc2)c[nH]1)C(C)C [Example 12-42]	< 0.1 nM
[2H]C([2H])([2H])C1(C([2H])([2H])[2H])CC1C(=O)N1CCN(c2ccc(NC(=O)c3ccc(-c4ccc(-c5nc([C@@H]6C[C@H](N(C)C)CN6C(=O)[C@@H](NC(=O)OC)C(C)C)[nH]c5Cl)cc4)c(OC(F)(F)F)c3)cn2)[C@H](C)C1 (stereo partly shown) [Example 6-17]	< 0.1 nM
COC(=O)N[C@H](C(=O)N1CC(C)(C)C[C@H]1c1nc(-c2ccc(-c3cc(F)c(NC(=O)c4ccc(N5CCN(C(=O)C6CC6)C[C@H]5C)nc4)cc3C(F)(F)F)cc2)c[nH]1)C(C)C [Example 3-3]	0.1 to 1 nM
COC(=O)N[C@H](C(=O)N1C[C@@H](C)C[C@H]1c1nc(-c2ccc(-c3cc(Cl)c(NC(=O)c4ccc(N5CCN(C(=O)C(C)(C)C)C[C@H]5C)nc4)cc3OC(F)(F)F)cc2)c[nH]1)C1CCCC1 [Example 13-41]	< 0.1 nM
CNC(=O)NCC(C)(C)C(=O)N1CCN(c2ccc(C(=O)Nc3cc(OC(F)(F)F)c(-c4ccc(-c5c[nH]c([C@@H]6C[C@H](C)CN6C(=O)[C@@H](NC(=O)OC)C(C)C)n5)cc4)cc3Cl)cn2)[C@H](C)C1 [Example 12-40]	< 0.1 nM
COC(=O)N[C@H](C(=O)N1C[C@@H](C)C[C@H]1c1nc(-c2ccc(-c3cc(Cl)c(NC(=O)c4ccc(N5CCN(C(=O)C(C)(C)CNC(=O)C(C)(C)C)C[C@H]5C)nc4)cc3OC(F)(F)F)cc2)c[nH]1)C(C)C [Example 12-38]	0.1 to 1 nM
COC(=O)N[C@H](C(=O)N1C[C@@H](C)C[C@H]1c1nc(-c2ccc(-c3cc(Cl)c(NC(=O)c4ccc(N5CCN(C(=O)C(C)(C)C)C[C@H]5C)nc4)cc3OC(F)(F)F)cc2)c[nH]1)[C@H](C)O [Example 13-6]	< 0.1 nM
COC(=O)N[C@H](C(=O)N1C[C@@H](C)C[C@H]1c1nc(-c2ccc(-c3cc(Cl)c(NC(=O)c4ccc(N5CCN(C(=O)C6CCCN6C(N)=O)C[C@H]5C)nc4)cc3OC(F)(F)F)cc2)c[nH]1)C(C)C (stereo partly shown) [Example 12-6]	< 0.1 nM
COC(=O)N[C@H](C(=O)N1C[C@@H](C)C[C@H]1c1nc(-c2ccc(-c3cc(Cl)c(NC(=O)c4ccc(N5CCN(C(=O)C6CCO6)C[C@H]5C)nc4)cc3OC(F)(F)F)cc2)c[nH]1)C(C)C (stereo partly shown) [Example 12-49]	< 0.1 nM
COC(=O)N[C@H](C(=O)N1C[C@@H](C)C[C@H]1c1nc(-c2ccc(-c3cc(Cl)c(NC(=O)c4ccc(N5CCN(C(=O)C6CC(N)C6)C[C@H]5C)nc4)cc3OC(F)(F)F)cc2)c[nH]1)C(C)C (stereo partly shown) [Example 12-52]	0.1 to 1 nM
